Counter-ions that a name gives are not always drawn. Like-named read-outs stand apart in the source and are kept apart here.
Columns and labels:
Type in all cases: cell-based, human
NCI-H460 = test: Inhibition test on cell proliferation (MTT), NCI-H460
Description: (§1) Tumor cells (NCI-H460, BxPC-3, HT-29, HCC-LM3) in the logarithmic growth phase were digested, centrifuged, and the supernatants were removed. Cells were resuspended by adding fresh culture medium, and counted using a cell counting plate. 100 μL of culture medium (containing cells) was added to a 96-well plate according to the standard of 2000 to 6000 cells per well and incubated in an incubator (37° C., 5% CO2) for 24 hours. After the cells were completely adhered to the wall, the test sample and Plinabulin were diluted to different concentrations using fresh culture medium, and 4 wells were set for each concentration. After 72 hours of drug treatment, the culture medium was removed, and 20 μL of MTT at a concentration of 5 mg/mL was added to each well. After 3-4 hours in the incubator, the MTT was discarded, and 100 μL of DMSO was added to each well, and placed in a 96-well plate shaker to completely dissolve the purple formazan. Subsequently, the absorbance (OD value) was detected at a wavelength of 490 nm using a microplate reader. The experiment also required setting up zero-setting wells (blank culture medium, MTT, DMSO). Cell inhibition rate=1−(OD value of drug-dosed group−OD value of zero-setting group)/(OD value of blank group−OD value of zero-setting group)×100%.

BxPC-3 = test: Inhibition test on cell proliferation (MTT), BxPC-3; settings: read-out: IC50 (nM) BxPC-3
Description: as §1

HCC-LM3 = test: Inhibition test on cell proliferation (MTT), HCC-LM3; settings: read-out: IC50 (nM) HCC-LM3
Description: as §1

[1] = Homo sapiens, NCI-H460, 72 h, 72 hours of drug treatment, MTT, read-out: IC50 (nM) NCI-H460
[2] = Homo sapiens, BXPC-3, 72 h, 72 hours of drug treatment, MTT
[3] = Homo sapiens, HCCLM3, 72 h, 72 hours of drug treatment, MTT
[4] = 72 hours of drug treatment, MTT, mesylate
[5] = 72 hours of drug treatment, MTT, read-out: IC50 (nM) NCI-H460
[6] = 72 hours of drug treatment, MTT
[7] = Homo sapiens, NCI-H460, 72 h, read-out: IC50 (nM) NCI-H460, 72 hours of drug treatment, MTT

SMILES: CC(CN1CCOCC1)Cn1cnc(/C=c2\[nH]c(=O)/c(=C/c3cccc(F)c3)[nH]c2=O)c1C(C)C (stereo not drawn) [PLN-2-67, (3Z,6Z)-3-(3-Fluorophenyl)methylene-6-((5-isopropyl-1-(3-morpholinyl)-2-methylpropylimidazol-4-yl)methylene)piperazine-2,5-dione]
- IC50 (NCI-H460; [1]): 8.39 ± 0.58 nM
- IC50 (BxPC-3; [2]): 3.73 ± 0.06 nM
- IC50 (HCC-LM3; [3]): 7.7 ± 0.04 nM

SMILES: CC(C)C(=O)N1CCN(CCCn2cnc(/C=c3\[nH]c(=O)/c(=C/c4cccc(C(=O)c5ccc(F)cc5)c4)[nH]c3=O)c2C(C)C)CC1 [PLN-2-32, (3Z,6Z)-3-(3-(p-fluorobenzoyl)phenyl)methylene-6-((5-isopropyl-1-(3-N-isobutyrylpiperazinyl)propylimidazol-4-yl)methylene)piperazine-2,5-dione]
- IC50 (NCI-H460; [1]): 7.95 ± 1.29 nM
- IC50 (BxPC-3; [2]): 4.16 ± 0.78 nM

SMILES: CC(C)c1c(/C=c2\[nH]c(=O)/c(=C/c3ccc(F)c(F)c3)[nH]c2=O)ncn1CCCN1CCOCC1 [PLN-2-63-2, (3Z,6Z)-3-(3,4-Difluorophenyl)methylene-6-((5-isopropyl-1-(3-morpholinyl)propylimidazol-4-yl)methylene)piperazine-2,5-dione, mesylate]
- IC50 (NCI-H460; 72 hours of drug treatment, MTT, mesylate, read-out: IC50 (nM) NCI-H460): 95.9 ± 3.66 nM
- IC50 (BxPC-3; [4]): 50.9 ± 6.75 nM
- IC50 (HCC-LM3; [4]): 69.5 ± 4.26 nM

SMILES: CC(=O)N1CCN(CCCn2cnc(/C=c3\[nH]c(=O)/c(=C/c4cccc(C(=O)c5ccc(F)cc5)c4)[nH]c3=O)c2C(C)C)CC1 [PLN-2-30, (3Z,6Z)-3-(3-(p-fluorobenzoyl)phenyl)methylene-6-((5-isopropyl-1-(3-N-acetylpiperazinyl)propylimidazol-4-yl)methylene)piperazine-2,5-dione]
- IC50 (NCI-H460; [1]): 3.98 ± 0.33 nM
- IC50 (BxPC-3; [2]): 2.3 ± 0.08 nM

SMILES: CC(C)c1c(/C=c2\[nH]c(=O)/c(=C/c3cccc(C(=O)c4ccc(F)cc4)c3)[nH]c2=O)ncn1CCCN1CCN(C=O)CC1 [PLN-2-29, (3Z,6Z)-3-(3-(p-fluorobenzoyl)phenyl)methylene-6-((5-isopropyl-1-(3-N-formylpiperazinyl)propylimidazol-4-yl)methylene)piperazine-2,5-dione]
- IC50 (NCI-H460; [1]): 3.46 ± 0.25 nM
- IC50 (BxPC-3; [2]): 1.4 ± 0.04 nM

SMILES: CC(C)c1c(/C=c2\[nH]c(=O)/c(=C/c3cccc(C(=O)c4ccc(F)cc4)c3)[nH]c2=O)ncn1CCCN1CCN(C(=O)C2CC2)CC1 [PLN-2-35, (3Z,6Z)-3-(3-(p-fluorobenzoyl)phenyl)methylene-6-((5-isopropyl-1-(3-N-cyclopropanecarbonylpiperazinyl)propylimidazol-4-yl)methylene)piperazine-2,5-dione]
- IC50 (NCI-H460; [1]): 5.28 ± 0.71 nM
- IC50 (BxPC-3; [2]): 2.23 ± 2.2 nM

SMILES: CC1CN(CCCn2cnc(/C=c3\[nH]c(=O)/c(=C/c4cccc(C(=O)c5ccc(F)cc5)c4)[nH]c3=O)c2C(C)C)CC(C)O1 (stereo not drawn) [PLN-2-13, (3Z,6Z)-3-(3-(p-fluorobenzoyl)phenyl)methylene-6-((5-isopropyl-1-((2,6-dimethyl)-3-morpholinyl)propylimidazol-4-yl)methylene)piperazine-2,5-dione]
- IC50 (NCI-H460; [5]): 8.2 ± 0.54 nM
- IC50 (BxPC-3; [6]): 14.9 ± 2.62 nM

SMILES: CC(C)NC(=O)N1CCN(CCCn2cnc(/C=c3\[nH]c(=O)/c(=C/c4cccc(C(=O)c5ccc(F)cc5)c4)[nH]c3=O)c2C(C)C)CC1 [PLN-2-44, (3Z,6Z)-3-(3-(p-fluorobenzoyl)phenyl)methylene-6-((5-isopropyl-1-(3-N-isopropylaminocarbonylpiperazinyl)propylimidazol-4-yl)methylene)piperazine-2,5-dione]
- IC50 (NCI-H460; [1]): 8.68 ± 0.78 nM
- IC50 (BxPC-3; [2]): 3.84 ± 0.12 nM

SMILES: CC(C)c1c(/C=c2\[nH]c(=O)/c(=C/c3cccc(Oc4ccc(F)cc4)c3)[nH]c2=O)ncn1CCCN1CCN(C(=O)OC(C)(C)C)CC1 [PLN-2-17, (3Z,6Z)-3-(3-(4-Fluorophenoxy)phenyl)methylene-6-((5-isopropyl-1-(3-N-tert-butoxycarbonylpiperazinyl)propylimidazol-4-yl)methylene)piperazine-2,5-dione]
- IC50 (NCI-H460; [1]): 41.8 ± 2.27 nM
- IC50 (BxPC-3; [2]): 21.1 ± 2.41 nM

SMILES: CCC(=O)N1CCN(CCCn2cnc(/C=c3\[nH]c(=O)/c(=C/c4cccc(C(=O)c5ccc(F)cc5)c4)[nH]c3=O)c2C(C)C)CC1 [PLN-2-31, (3Z,6Z)-3-(3-(p-fluorobenzoyl)phenyl)methylene-6-((5-isopropyl-1-(3-N-propionylpiperazinyl)propylimidazol-4-yl)methylene)piperazine-2,5-dione]
- IC50 (NCI-H460; [1]): 6.93 ± 0.96 nM
- IC50 (BxPC-3; [2]): 2.48 ± 0.57 nM

SMILES: CC(C)c1c(/C=c2\[nH]c(=O)/c(=C/c3cccc(C(=O)c4ccc(F)cc4)c3)[nH]c2=O)ncn1CCCN1CCN(C(=O)NC2CCCCC2)CC1 [PLN-2-47, (3Z,6Z)-3-(3-(p-fluorobenzoyl)phenyl)methylene-6-((5-isopropyl-1-(3-N-cyclohexylaminocarbonylpiperazinyl)propylimidazol-4-yl)methylene)piperazine-2,5-dione]
- IC50 (NCI-H460; [1]): 6.56 ± 0.32 nM
- IC50 (BxPC-3; [2]): 3.62 ± 0.48 nM

SMILES: CC1CN(CCCn2cnc(/C=c3\[nH]c(=O)/c(=C/c4cccc(C(=O)c5ccc(F)cc5)c4)[nH]c3=O)c2C(C)C)CC(C)O1 (stereo not drawn) [PLN-2-12, (3Z,6Z)-3-(3-(p-fluorobenzoyl)phenyl)methylene-6-((5-isopropyl-1-((2,6-dimethyl)-3-morpholinyl)propylimidazol-4-yl)methylene)piperazine-2,5-dione]
- IC50 (NCI-H460; [5]): 3.77 ± 0.62 nM
- IC50 (BxPC-3; [6]): 2.48 ± 2.12 nM

SMILES: CCC(=O)N1CCN(CCCn2cnc(/C=c3\[nH]c(=O)/c(=C/c4cccc(F)c4)[nH]c3=O)c2C(C)C)CC1 [PLN-2-65, (3Z,6Z)-3-(3-Fluorophenyl)methylene-6-(5-isopropyl-1-(3-(4-(propionyl)piperazinyl)propylimidazol-4-yl)methylene)piperazine-2,5-dione]
- IC50 (NCI-H460; [1]): 17.4 ± 1.45 nM
- IC50 (BxPC-3; [2]): 10.3 ± 2.18 nM
- IC50 (HCC-LM3; [3]): 20.9 ± 0.97 nM

SMILES: CC(C)c1c(/C=c2\[nH]c(=O)/c(=C/c3cccc(C(=O)c4ccc(F)cc4)c3)[nH]c2=O)ncn1CCCN1CCN(Cc2ccc(B3OC(C)(C)C(C)(C)O3)cc2)CC1 [PLN-2-27, (3Z,6Z)-3-(3-(p-fluorobenzoyl)phenyl)methylene-6-((5-isopropyl-1-(3-N-(4-(4,4,5,5-tetramethyl-1,3,2-dioxaborolan-2-yl))benzylpiperazinyl)propylimidazol-4-yl)methylene)piperazine-2,5-dione]
- IC50 (NCI-H460; [1]): 23.9 ± 4.76 nM
- IC50 (BxPC-3; [2]): 17.9 ± 5.9 nM

SMILES: CC(C)c1c(/C=c2\[nH]c(=O)/c(=C/c3cccc(C(=O)c4ccc(F)cc4)c3)[nH]c2=O)ncn1CCCN1CCN(C(=O)C2CCCC2)CC1 [PLN-2-37, (3Z,6Z)-3-(3-(p-fluorobenzoyl)phenyl)methylene-6-((5-isopropyl-1-(3-N-cyclopentnecarbonylpiperazinyl)propylimidazol-4-yl)methylene)piperazine-2,5-dione]
- IC50 (NCI-H460; [7]): 7.86 ± 1.37 nM
- IC50 (BxPC-3; Homo sapiens, BXPC-3, 72 h): 6.23 ± 0.15 nM

SMILES: CC1CN(CCCn2cnc(/C=c3\[nH]c(=O)/c(=C/c4cccc(C(=O)c5ccc(F)cc5)c4)[nH]c3=O)c2C2CC2)CC(C)O1 (stereo not drawn) [PLN-2-14, (3Z,6Z)-3-(3-(p-fluorobenzoyl)phenyl)methylene-6-((5-cyclopropyl-1-((2,6-dimethyl)-3-morpholinyl)propylimidazol-4-yl)methylene)piperazine-2,5-dione]
- IC50 (NCI-H460; [1]): 9.33 ± 0.54 nM
- IC50 (BxPC-3; [2]): 9.33 ± 0.45 nM

SMILES: CC(=O)N1CCN(CCCn2cnc(/C=c3\[nH]c(=O)/c(=C/c4cccc(F)c4)[nH]c3=O)c2C(C)C)CC1 [PLN-2-64, (3Z,6Z)-3-(3-Fluorophenyl)methylene-6-(5-isopropyl-1-(3-(4-(acetyl)piperazinyl)propylimidazol-4-yl)methylene)piperazine-2,5-dione]
- IC50 (NCI-H460; [1]): 18.5 ± 0.3 nM
- IC50 (BxPC-3; [2]): 7.7 ± 0.39 nM
- IC50 (HCC-LM3; [3]): 26.1 ± 2.14 nM

SMILES: CC(C)c1c(/C=c2\[nH]c(=O)/c(=C/c3cccc(C(=O)c4ccc(F)cc4)c3)[nH]c2=O)ncn1CCCN1CCN(C(=O)NC(C)(C)C)CC1 [PLN-2-45, (3Z,6Z)-3-(3-(p-Fluorobenzoyl)phenyl)methylene-6-((5-isopropyl-1-(3-N-tert-butylaminocarbonylpiperazinyl)propylimidazol-4-yl)methylene)piperazine-2,5-dione]
- IC50 (NCI-H460; [1]): 6.43 ± 1.98 nM
- IC50 (BxPC-3; [2]): 1.79 ± 0.49 nM

SMILES: CCCC(=O)N1CCN(CCCn2cnc(/C=c3\[nH]c(=O)/c(=C/c4cccc(F)c4)[nH]c3=O)c2C(C)C)CC1 [PLN-2-66, (3Z,6Z)-3-(3-Fluorophenyl)methylene-6-(5-isopropyl-1-(3-(4-(n-butyryl)piperazinyl)propylimidazol-4-yl)methylene)piperazine-2,5-dione]
- IC50 (NCI-H460; [7]): 40.3 ± 3.72 nM
- IC50 (BxPC-3; Homo sapiens, BXPC-3, 72 h): 30.4 ± 0.35 nM
- IC50 (HCC-LM3; Homo sapiens, HCCLM3, 72 h): 43.9 ± 7.94 nM

SMILES: CC(C)c1c(/C=c2\[nH]c(=O)/c(=C/c3cccc(C(=O)c4ccc(F)cc4)c3)[nH]c2=O)ncn1CCCN1CCN(S(C)(=O)=O)CC1 [PLN-2-42, (3Z,6Z)-3-(3-(p-fluorobenzoyl)phenyl)methylene-6-((5-isopropyl-1-(3-N-methylsulfonylpiperazinyl)propylimidazol-4-yl)methylene)piperazine-2,5-dione]
- IC50 (NCI-H460; [7]): 6.59 ± 1.29 nM
- IC50 (BxPC-3; Homo sapiens, BXPC-3, 72 h): 3.38 ± 0.53 nM

From patent publication US20240140941A1, “DERIVATIVE OF 2,5-DIKETOPIPERAZINE COMPOUND, AND PREPARATION METHOD THEREFOR, PHARMACEUTICAL COMPOSITION THEREOF AND USE THEREOF” (DALIAN WZ PROBIOTICS AD HEALTH CO., LTD, priority 2020, published 2024)
